These results are taken from patent US6576662B2, “Compounds having anticancer activity : process for their preparation and pharmaceutical compositions containing them” (Dr. Reddy's Laboratories Limited, priority 2000, dated 2003).

Like-named read-outs stand apart in the source and are kept apart here.

One data set concerns A498. The experiment in a line: in vitro anti-cancer screen, Sulforhodamine B method. Conditions: RENAL: A498, 48 h incubation, read-out: GROWTH INHIBITION (GI 50). It is filed as cell-based, human. As to the method:
(§1) Each test compound was screened against a battery of cell lines representing eight different types of cancers. In a typical procedure, 1×10^4 cells were seeded into each well of 96 well plate in 100 μL volume of RPMI 1640 medium containing antibiotics and 10% FCS.
(§2) The plates were incubated at 37° C. in presence of CO2. After 24 h, test compounds were evaluated at five 10 fold dilutions ranging from 100 to 0.01 μM. To each test well 100 μL of test compound solution was added and medium with vehicle was added to control wells and the plates were further incubated. After 48 h of incubation, plates were terminated by Sulforhodamine B method.
(§3) The optical density which is proportional to protein mass, is then-read by automated spectrophotometric plate reader at a wavelength of 515 nm.

The subject of another data set is DU145. The data set is described as above. It is filed as cell-based, human. Conditions: PROSTATE: DU145, 48 h incubation, read-out: GROWTH INHIBITION (GI 50). As to the method:
as §1, §2, §3

The test system of the next data set is H522. The description is as above. It counts as cell-based, human. As to conditions: LUNG: H522, 48 h incubation, read-out: GROWTH INHIBITION (GI 50). On the procedure:
as §1, §2, §3

The next data set concerns M14. The description is as above. It is filed as cell-based, human. As to conditions: MELANOMA: M14; 48 h incubation; read-out: GROWTH INHIBITION (GI 50). On the procedure:
as §1, §2, §3

The test system of the next data set is MCF-7/ADR. Described as above. It counts as cell-based, human. As to conditions: BREAST: MCF-7/ADR, 48 h incubation, read-out: GROWTH INHIBITION (GI 50). On the procedure: as §1, §2, §3
For another data set, the system named is SKOV-3. Described as above. It is filed as cell-based, human. Conditions: OVARIAN: SKOV-3, 48 h incubation, read-out: GROWTH INHIBITION (GI 50). On the procedure: as §1, §2, §3
The next data set has as its system SW-620. Described as above. It counts as cell-based, human. Conditions: COLON: SW-620, 48 h incubation, read-out: GROWTH INHIBITION (GI 50). On the procedure: as §1, §2, §3
The next data set has as its system U251. Described as above. Conditions: CNS: U251, 48 h incubation, read-out: GROWTH INHIBITION (GI 50). It counts as cell-based, human. As to the method: as §1, §2, §3
The subject of the next data set is Human lymphocytes. The experiment in a line: Lymphocyte proliferation, tritiated thymidine incorporation. As to conditions: Concentration 1 μM; human lymphocytes with Phytohemagglutitin A. It counts as cell-based. On the procedure: Human lymphocytes were isolated from whole blood by using Ficoll Hypaque Plus (Amersham). On day one, 1 million lymphocytes were seeded into each well of 96 well plate in 100 μL volume of RPMI 1640 medium containing 10% FCS and Phytohemagglutitin A at 1 μg/well concentration. Plates were incubated at 37° C. in CO2 incubator for 24 h. Test compounds at various concentrations were added to test wells and only medium with vehicle was added to control wells. After 48 h of incubation […] of tritiated thymidine was added to each well. After 24 h of thymidine addition the cells were harvested and the incorporated radioactivity was determined. Stimulation Index (SI) was calculated using the formula, [formula]
A^T=Average CPM of treated wells,
A^C=Average CPM of control wells.

In the next data set the test system is HT29. The experiment in a line: in vitro anti-cancer screen, Sulforhodamine B method. It is filed as cell-based, human. Conditions: Homo sapiens, HT-29; COLON: HT29; 48 h incubation; read-out: GROWTH INHIBITION (GI 50). On the procedure: as §1, §2, §3
For another data set, the system named is MCF7. The data set is described as above. It counts as cell-based, human. Conditions: Homo sapiens; BREAST: MCF7; 48 h incubation; read-out: GROWTH INHIBITION (GI 50). On the procedure:
as §1, §2, §3

In a further data set the test system is PA1. Described as above. It counts as cell-based, human. As to conditions: Homo sapiens, PA-1; OVARIAN: PA1; 48 h incubation; read-out: GROWTH INHIBITION (GI 50). As to the method:
as §1, §2, §3

For a further data set, the system named is UACC62. The description is as above. It counts as cell-based, human. As to conditions: Homo sapiens, UACC-62; MELANOMA: UACC62; 48 h incubation; read-out: GROWTH INHIBITION (GI 50). On the procedure:
as §1, §2, §3

In the next data set the test system is tumor cell lines. Conditions: cited from earlier work.
A further data set has as its system PC-3. The experiment in a line: in vitro anti-cancer screen, Sulforhodamine B method. It counts as cell-based. As to conditions: Homo sapiens; PROSTATE: PC-3; 48 h incubation; read-out: GROWTH INHIBITION (GI 50). As to the method:
as §1, §2, §3

In the case of `C=C1CCC2C(C)(COC(C)=O)C(OC(C)=O)CCC2(C)C1CC(NCc1ccc(OC)cc1)C1=CCOC1=O` (centres unmarked) [Example 3, 3,19-Diacetyl-14-deoxy-12-(N-4-methoxybenzylamino)andrographolide], the GI50 with A498 stood at 0.18 µM; with DU145 it was 8 µM; in the data set on H522, 0.18 µM; with M14, 5.5 µM; in the data set on MCF-7/ADR it was 5 µM; in the data set with SKOV-3, 0.15 µM. The GI50 in the data set with SW-620 came out at 3.5 µM; in the data set on U251 it was 8 µM.
Regarding `C=C1CCC2C(C)(COC(C)=O)C(OC(C)=O)CCC2(C)C1CC(Sc1ccccc1)C1=CCOC1=O` (centres unmarked) [Example 58, 3,19-Diacetyl-14-deoxy-12-phenylthio andrographolide], the GI50 amounted to 0.2 µM in the data set on A498; 7.5 µM with DU145; 7 µM with H522; 4 µM in the data set on M14; 6.5 µM with MCF-7/ADR; 6 µM in the data set on SKOV-3. For the same compound, the results for the GI50 in the data set on SW-620 and with U251 were 5 µM and 4 µM, respectively. Also, the “Stimulation Index (SI)” value in the data set with Human lymphocytes is given as 99.
As for `C=C1CCC2[C@]3(C)COC(C)(c4ccccc4)OC3CC[C@]2(C)[C@H]1CC(NCc1ccccc1)C1=CCOC1=O` (some centres unmarked) [Example 21, 12-(N-Benzylamino)-14-deoxy-3,19-O-(1-phenylethylidene)andrographolide], the melting point was 149.6 °C. Also, in the data set on A498 (Homo sapiens), the GI50 stood at 2 µM. Also, the GI50 with H522 (Homo sapiens, NCI-H522) amounted to 3 µM. In the data set with HT29, the GI50 was found to be 3 µM. In addition, in the data set with MCF-7/ADR (Homo sapiens, NCI/ADR-RES), the GI50 was found to be 1 µM. The GI50 in the data set with MCF7 came out at 3 µM. Also, in the data set on PA1, the GI50 came to 2 µM. In the data set with SKOV-3 (Homo sapiens, SK-OV-3), the GI50 was determined as 2 µM. Further, the GI50 in the data set on SW-620 (Homo sapiens) turned out to be 2 µM. For the same compound, the GI50 in the data set with U251 (Homo sapiens, U-251) turned out to be 2 µM. Further, in the data set on UACC62, the GI50 stood at 2 µM. Moreover, the “Stimulation Index (SI)” value in the data set with Human lymphocytes worked out at 16.
Take `C=C1CC[C@@H]2[C@](C)(CO[C@@H]3O[C@H](CO)[C@@H](O)[C@H](O)[C@H]3O)CCC[C@@]2(C)[C@@H]1CCC1=CCOC1=O` [neoandrographolide]: the cytotoxic activity result in the data set on tumor cell lines is recorded as “no cytotoxic activity”.
`CC(=O)OCC1(C)C(OC(C)=O)CCC2(C)C(CC(Sc3ccccc3)C3=CCOC3=O)C3(CCC12)CO3` (centres unmarked) [Example 70, 3,19-Diacetyl-14-deoxy-8,17-epoxy-12-phenylthio andrographolide]: the GI50 was 4 µM with A498; 2 µM with DU145; 7 µM with H522; 3 µM with M14; 8 µM in the data set on MCF-7/ADR; 4 µM in the data set with SKOV-3. Further, the GI50 with SW-620 stood at 4 µM; with U251, 7 µM.
`C=C1CCC2[C@](C)(CO)[C@H](O)CC[C@]2(C)[C@H]1CC(NCc1ccccc1)C1=CCOC1=O` (some centres unmarked) [Example 18, 12-(N-Benzylamino)-14-deoxy andrographolide] displayed a melting point of 192 °C. Besides, in the data set with A498 (Homo sapiens), the GI50 was determined as 2.5 µM. Further, the GI50 in the data set on DU145 (Homo sapiens, DU-145) stood at 10 µM. Besides, the GI50 with H522 (Homo sapiens, NCI-H522) was 6 µM. Moreover, the GI50 in the data set on HT29 worked out at 10 µM. Also, the GI50 in the data set with MCF-7/ADR (Homo sapiens, NCI/ADR-RES) was 2.5 µM. For the same compound, in the data set on MCF7, the GI50 is 3 µM. Also, the GI50 with PA1 amounted to 3 µM. Further, the GI50 in the data set on SKOV-3 (Homo sapiens, SK-OV-3) worked out at 4 µM. Moreover, in the data set with SW-620 (Homo sapiens), the GI50 was determined as 2.5 µM. Also, the GI50 in the data set on U251 (Homo sapiens, U-251) stood at 0.07 µM. The GI50 in the data set with UACC62 is 3.5 µM. In the data set with PC-3, the GI50 turned out to be 2.5 µM. Also, in the data set with Human lymphocytes, the “Stimulation Index (SI)” value was found to be 64.
With `C=C1CCC2[C@](C)(CO)[C@H](O)CC[C@]2(C)[C@H]1CC(C1=CCOC1=O)n1cc(F)c(=O)[nH]c1=O` (some centres unmarked) [Example 51, 14-Deoxy-12-[N^1-(5-fluorouracil)]andrographolide], the melting point came out at 155 °C. For the same compound, the GI50 in the data set with A498 (Homo sapiens) was 2.5 µM. Moreover, the GI50 in the data set on DU145 (Homo sapiens, DU-145) was determined as 15 µM. For the same compound, in the data set with H522 (Homo sapiens, NCI-H522), the GI50 amounted to 5 µM. The GI50 in the data set on HT29 was found to be 10 µM. The GI50 in the data set with MCF-7/ADR (Homo sapiens, NCI/ADR-RES) was 4 µM. In the data set with MCF7, the GI50 worked out at 4 µM. Also, the GI50 in the data set with PA1 is 3 µM. For the same compound, the GI50 in the data set on SKOV-3 (Homo sapiens, SK-OV-3) was determined as 7 µM. The GI50 in the data set on SW-620 (Homo sapiens) is 3.5 µM. For the same compound, the GI50 in the data set on U251 (Homo sapiens, U-251) was 2 µM. Further, in the data set on UACC62, the GI50 came out at 6 µM. Besides, in the data set on PC-3, the GI50 came to 3 µM.
